Measurements as given in article PMC7113723 (Antiviral Research, 2017).
Read-outs that look alike come from different tables or passages of the source.

Key:
[1] = test system: PV; test: microbe, parasite or virus in culture; format: cell-based, poliovirus type 1; details: Enterovirus C, MRC5, 24 h
[2] = test system: HCoV-229E; test: Immunofluorescence of viral dsRNA and nsp8 in HCoV-229E-infected MRC-5 cells; format: cell-based, human coronavirus 229E; details: MRC-5, MOI 3, 12 h p.i.
[3] = ref Saradhi et al., 2011; cited from earlier work
[4] = Cell toxicity, MTT assay; details: human, PBMCs
[5] = test system: 5′ UTR of PIM1; format: cell-based
[6] = test system: HRV A1; test: microbe, parasite or virus in culture; format: cell-based, human rhinovirus A1; details: Rhinovirus A, HeLa, 24 h
[7] = test system: 5′ UTR of the ß-actin mRNA; format: cell-based
[8] = test system: HCoV-229E; test: microbe, parasite or virus in culture; format: cell-based; details: Human coronavirus 229E, MRC5, 24 h
[9] = test system: 5′ UTR of HCoV-229E; format: cell-based, human coronavirus 229E
[10] = test system: HCoV-229E; format: cell-based, human coronavirus 229E; details: MRC-5 cells, 10 nM silvestrol, MOI 3, 12 h and 48 h p.i.
[11] = test system: PV; test: microbe, parasite or virus in culture; format: cell-based, poliovirus type 1
[12] = test system: EBOV 5′ UTR VP40; format: cell-based, Ebola virus
[13] = test system: HCoV-229E; format: cell-based, human coronavirus 229E; details: Huh-7 cells, MOI 3
[14] = test system: HRV A1; test: microbe, parasite or virus in culture; format: cell-based, human rhinovirus A1; details: Rhinovirus A, MRC5, 24 h
[15] = test system: 5′ UTR of MERS-CoV; format: cell-based, Middle East Respiratory Syndrome coronavirus
[16] = test system: MERS-CoV; test: microbe, parasite or virus in culture; format: cell-based, Middle East Respiratory Syndrome coronavirus
[17] = test system: 5′ UTR of the classical swine fever virus (CSFV); format: cell-based
[18] = test system: EBOV; details: cited from earlier work
[19] = test system: EBOV 5′ UTR L; format: cell-based, Ebola virus
[20] = test system: HCoV-229E; test: microbe, parasite or virus in culture; format: cell-based; details: Human coronavirus 229E, Huh-7, 24 h
[21] = test system: HCoV-229E; test: microbe, parasite or virus in culture; format: cell-based; details: Human coronavirus 229E, PBMC
[22] = Middle East respiratory syndrome-related coronavirus, MRC5, 24 h

Q: Which results are given for `COC(=O)[C@H]1[C@@H](O)[C@@]2(O)c3c(OC)cc(O[C@@H]4O[C@@H]([C@H](O)CO)CO[C@H]4OC)cc3O[C@@]2(c2ccc(OC)cc2)[C@@H]1c1ccccc1` [silvestrol]?
A: EC50 [1]: ~20 nM; EC90 [1]: 180 nM; viral dsRNA and nsp8 protein (immunofluorescence) ([2]; 10 nM silvestrol): significant decrease; viral dsRNA and nsp8 protein (immunofluorescence) ([2]; 100 nM silvestrol): nearly no viral dsRNA and nsp8 could be detected; pharmacokinetics in terms of bioavailability and biostability [3]: favorable pharmacokinetics; CC50 at 24 h [4]: > 1000 nM; inhibition of firefly luciferase expression [5]: ~40%; EC50 [6]: 400 nM; EC90 [6]: 3600 nM; inhibition of firefly luciferase expression [7]: not more than 10%; EC50 [8]: 3 nM; EC90 [8]: 27 nM; decrease of luciferase activity [9]: ~40%; N and nsp8 protein accumulation (Western blot) [10]: very low amounts; SI, selectivity indices [11]: ≤ 1.6; EC50 ([11]; Enterovirus C, Vero, 24 h): 100 nM; EC90 ([11]; Enterovirus C, Vero, 24 h): 900 nM; decrease of firefly luciferase activity [12]: 23%; N and nsp8 protein accumulation (Western blot) ([13]; 100 nM silvestrol): essentially undetectable; N and nsp8 protein accumulation (Western blot) ([13]; silvestrol up to 10 nM): unaffected; EC50 [14]: ~100 nM; EC90 [14]: 900 nM; decrease of luciferase activity [15]: ~40%; SI, selectivity index [16]: >7690; EC50 [16, 22]: 1.3 nM; EC90 [16, 22]: 12 nM; sensitivity towards silvestrol in the dual luciferase assay [17]: no sensitivity; EBOV titers [18]: strongly reduce EBOV titers; decrease of firefly luciferase activity [19]: 33%; EC50 [20]: 40 nM; EC90 [20]: 360 nM; EC50 [21]: 3.5 nM; EC50 ([21]; 24 h): 2.8 nM; EC90 ([21]; 24 h): 25 nM
